Assay results published in ChEMBL document CHEMBL3132774, “The advantage of biosensor analysis over enzyme inhibition studies for slow dissociating inhibitors characterization of hydroxamate-based matrix metalloproteinase-12 inhibitors” (Medchemcomm, 2013).

Legend:
[1] = molecular target: T1, Macrophage metalloelastase (Homo sapiens, UniProt P39900); assay: Inhibition of human recombinant MMP12 using Mca-Pro-Leu-Gly-Leu-Dpa-Ala-Arg-NH2 as substrate incubated for 10 mins prior to substrate addition by spectrophotometry; settings: read-out: Ki(app)
Target sequence in this assay (P39900 whole entry): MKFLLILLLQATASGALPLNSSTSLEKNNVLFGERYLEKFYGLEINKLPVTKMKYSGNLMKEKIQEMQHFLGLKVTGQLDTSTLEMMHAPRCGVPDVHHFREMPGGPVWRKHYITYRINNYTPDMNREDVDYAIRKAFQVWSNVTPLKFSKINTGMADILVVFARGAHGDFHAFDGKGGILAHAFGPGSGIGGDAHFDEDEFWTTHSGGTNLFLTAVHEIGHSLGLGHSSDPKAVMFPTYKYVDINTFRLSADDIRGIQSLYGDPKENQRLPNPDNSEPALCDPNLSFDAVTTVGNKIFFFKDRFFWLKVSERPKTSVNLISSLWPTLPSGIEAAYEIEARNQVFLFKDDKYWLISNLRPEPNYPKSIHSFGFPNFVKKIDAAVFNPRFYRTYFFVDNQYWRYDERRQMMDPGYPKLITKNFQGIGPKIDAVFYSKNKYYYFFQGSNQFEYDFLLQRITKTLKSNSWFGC

[2] = molecular target: T1, Macrophage metalloelastase; assay: Time dependent inhibition of human recombinant MMP12 by progress curve enzyme inhibition assay; settings: read-out: Ki(app)
Target sequence in this assay (P39900 whole entry): as above

[3] = molecular target: T1, Macrophage metalloelastase; assay: Inhibition of human recombinant MMP12 by SPR assay
Target sequence in this assay (P39900 106-470 limits assumed): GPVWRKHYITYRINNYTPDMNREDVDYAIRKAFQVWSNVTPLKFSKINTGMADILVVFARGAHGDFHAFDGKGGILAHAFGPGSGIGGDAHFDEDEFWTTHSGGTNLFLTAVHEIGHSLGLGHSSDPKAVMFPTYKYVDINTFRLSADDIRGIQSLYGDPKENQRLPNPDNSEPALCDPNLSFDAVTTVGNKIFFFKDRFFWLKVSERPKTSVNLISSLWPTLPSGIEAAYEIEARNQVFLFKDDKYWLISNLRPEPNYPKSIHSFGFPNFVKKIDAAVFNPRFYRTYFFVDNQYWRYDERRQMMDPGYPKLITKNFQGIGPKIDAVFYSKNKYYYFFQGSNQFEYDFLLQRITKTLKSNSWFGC

SMILES	Ki [1] [nM]	Ki [2] [nM]	inhibition [3]
CCN(CC)Cc1cc(C)c(N(Cc2ccccc2)S(=O)(=O)c2ccc(OC)cc2)cc1C(=O)NO	30	3.53	
CNC(=O)[C@H](Cc1ccccc1)NC(=O)[C@H](CCc1ccc(-c2cccnc2)cc1)CC(=O)O	48		Dose-dependent effect

The next compounds have a lower Ki [1] than those just listed; values first:

Ki [1] [nM]	Ki [2] [nM]	inhibition [3]	SMILES
1.9	0.61		COc1ccc(S(=O)(=O)N2CC(C)(C)CN(S(=O)(=O)c3ccc(OC)cc3)C2C(=O)NO)cc1
1			CNC(=O)[C@H](Cc1ccccc1)NC(=O)[C@H](CCc1ccc(-c2cccnc2)cc1)CC(=O)NO
3.8	0.52	Dose-dependent effect	CNC(=O)[C@H](Cc1c[nH]c2ccccc12)NC(=O)[C@@H](CC(=O)NO)CC(C)C [ILOMASTAT]
